{"source": "patent US9428519B2", "about": "“Acylated derivative of homoharringtonine, preparation method therefor, and application thereof” (HANGZHOU BENSHENG PHARMACEUTICAL CO., LTD., priority 2011, dated 2016)", "key": {"[1]": {"system": "RPMI8226 (multiple myeloma)", "test": "MTT growth inhibition of multiple myeloma cells, 72 h", "assay_type": "cell-based, human", "conditions": "MTT", "protocol": "Multiple myeloma and lymphoma cell lines: RPMI8226 (multiple myeloma), purchased from Fuxiang Bio-tech Co. Ltd., Shanghai, China.\n(§1) Obtaining 6000 well-growing leukemia cells and inoculating them into wells of a 96-well cell culture plate. The culture medium is the 1640 cell culture medium containing 10% fetal bovine serum. After adding the homoharringtonine derivatives of different concentrations and mixing uniformly, placing the plate in a carbon dioxide cell incubator (5% CO2) at 37° C. and incubated for 72 hours. Then the viable cell concentration is determined by the MTT method. In this experiment, the cell viability in control group (not treated with any compound) is set as 100%. On such basis, the cell viability (%) after treatment and the 50% inhibiting concentration of the compound for the leukemia cell growth at 72 hours (IC50 value of 72 hours) are calculated."}, "[2]": {"system": "Kasumi-1 (acute myeloid leukemia M2 type, AML-M2)", "test": "MTT growth inhibition of leukemia cells, 72 h", "assay_type": "cell-based, human", "conditions": "MTT", "from_the_text": "(§2) Leukemia cell lines: leukemia cell lines: K562/adr (drug-resistant, chronic myeloid leukemia, CML), NB4 (acute promyelocytic leukemia, AML), Kasumi-1 (acute myeloid leukemia M2 type, AML-M2), Jurkat (acute lymphoblastic leukemia, ALL), all of which are donated by Cancer Research Institute of Zhejiang University, China; and H9 (acute lymphoblastic leukemia, ALL), which is purchased from China Center for Type Culture Collection (CCTCC).\n(§3) Reagents: The standard sample of homoharringtonine (HHT) is purchased from Taihua Natural Plant Pharmaceutical Co., Ltd., Shaanxi, China, the homoharringtonine derivatives of the present invention.\nas §1"}, "[3]": {"system": "H9 (acute lymphoblastic leukemia, ALL)", "test": "MTT growth inhibition of leukemia cells, 72 h", "assay_type": "cell-based, human", "conditions": "MTT", "from_the_text": "as §2, §3, §1"}, "[4]": {"system": "K562/adr (drug-resistant, chronic myeloid leukemia, CML)", "test": "MTT growth inhibition of leukemia cells, 72 h", "assay_type": "cell-based, human", "conditions": "MTT", "from_the_text": "as §2, §3, §1"}, "[5]": {"system": "Jurkat (acute lymphoblastic leukemia, ALL)", "test": "MTT growth inhibition of leukemia cells, 72 h", "assay_type": "cell-based, human", "from_the_text": "as §2, §3, §1"}, "[6]": {"system": "NB4 (acute promyelocytic leukemia, AML)", "test": "MTT growth inhibition of leukemia cells, 72 h", "assay_type": "cell-based, human", "conditions": "MTT", "from_the_text": "as §2, §3, §1"}, "A549 (human lung cancer)": {"system": "A549 (human lung cancer)", "test": "MTT growth inhibition of human solid tumor cells, 72 h", "assay_type": "cell-based", "protocol": "(§4) Human solid tumor cell lines: Hep-2 (laryngeal carcinoma), A549 (human lung cancer), CaES-17 (esophageal cancer cell), PC-3 (prostate cancer), CNE (nasopharyngeal carcinoma cell), and SK-OV-3 (ovarian cancer cell), all of which are purchased from China Center For Type Culture Collection; RKO (human colon adenocarcinoma cell), MGC 803 (human gastric cancer cell), MG63 (osteosarcoma) and U87 MG (malignant glioma cell), all of which are purchased from Fuxiang Bio-tech Co. Ltd., Shanghai, China; PANC-1 (pancreatic cancer), Huh7 (human liver cancer cell), Becap37 (human breast cancer cell), and Hela (human cervical cancer cell), all of which are donated by Cancer Research Institute of Zhejiang University, China.\n(§5) Obtaining 4000 well-growing human solid tumor cells and inoculating them into wells of a 96-well cell culture plate. The culture medium is DMEM High Glucose cell culture medium containing 10% fetal bovine serum. The plate is placed in a carbon dioxide cell incubator (5% CO2) at 37° C. and incubated for 24 hours. After adding the homoharringtonine derivatives of different concentration and mixing uniformly, the plate is placed in a carbon dioxide cell incubator (5% CO2) at 37° C. and incubated for 72 hours. Then the viable cell concentration is determined by the MTT method and the cell viability (%) after drug treatment is calculated. In this experiment, the cell viability of control group (not treated with any compound) is set as 100%."}, "[7]": {"system": "SK-OV-3 (ovarian cancer cell)", "test": "MTT growth inhibition of human solid tumor cells, 72 h", "assay_type": "cell-based", "conditions": "MTT", "protocol": "as §4, §5"}, "[8]": {"system": "Huh7 (human liver cancer cell)", "test": "MTT growth inhibition of human solid tumor cells, 72 h", "assay_type": "cell-based", "protocol": "as §4, §5"}, "[9]": {"system": "Hela (human cervical cancer cell)", "test": "MTT growth inhibition of human solid tumor cells, 72 h", "assay_type": "cell-based", "conditions": "MTT", "protocol": "as §4, §5"}, "PC-3 (prostate cancer)": {"system": "PC-3 (prostate cancer)", "test": "MTT growth inhibition of human solid tumor cells, 72 h", "assay_type": "cell-based", "conditions": "MTT", "protocol": "as §4, §5"}, "[10]": {"system": "CaES-17 (esophageal cancer cell)", "test": "MTT growth inhibition of human solid tumor cells, 72 h", "assay_type": "cell-based", "protocol": "as §4, §5"}, "MG63 (osteosarcoma)": {"system": "MG63 (osteosarcoma)", "test": "MTT growth inhibition of human solid tumor cells, 72 h", "assay_type": "cell-based", "conditions": "MTT", "protocol": "as §4, §5"}, "[11]": {"system": "PANC-1 (pancreatic cancer)", "test": "MTT growth inhibition of human solid tumor cells, 72 h", "assay_type": "cell-based", "conditions": "MTT", "protocol": "as §4, §5"}, "[12]": {"system": "RKO (human colon adenocarcinoma cell)", "test": "MTT growth inhibition of human solid tumor cells, 72 h", "assay_type": "cell-based", "conditions": "MTT", "protocol": "as §4, §5"}, "[13]": {"system": "Hep-2 (laryngeal carcinoma)", "test": "MTT growth inhibition of human solid tumor cells, 72 h", "assay_type": "cell-based", "protocol": "as §4, §5"}, "[14]": {"system": "U87 MG (malignant glioma cell)", "test": "MTT growth inhibition of human solid tumor cells, 72 h", "assay_type": "cell-based", "protocol": "as §4, §5"}, "[15]": {"system": "MGC 803 (human gastric cancer cell)", "test": "MTT growth inhibition of human solid tumor cells, 72 h", "assay_type": "cell-based", "protocol": "as §4, §5"}, "[16]": {"system": "Becap37 (human breast cancer cell)", "test": "MTT growth inhibition of human solid tumor cells, 72 h", "assay_type": "cell-based", "protocol": "as §4, §5"}, "[17]": {"system": "CNE (nasopharyngeal carcinoma cell)", "test": "MTT growth inhibition of human solid tumor cells, 72 h", "assay_type": "cell-based", "conditions": "MTT", "protocol": "as §4, §5"}}, "data": [{"compound": "COC(=O)C[C@](O)(CCCC(C)(C)OC(=O)C1CCCCC1)C(=O)O[C@@H]1C(OC)=C[C@]23CCCN2CCc2cc4c(cc2[C@H]13)OCO4", "note": "[BS-HH-076]", "values": [{"measurement": "IC50 RPMI8226", "setting": "[1]", "result": 0.007, "unit": "µg/mL"}, {"measurement": "IC90 RPMI8226", "setting": "[1]", "result": 0.034, "unit": "µg/mL"}, {"measurement": "IC50 Kasumi-1", "setting": "[2]", "result": 0.006, "unit": "µg/mL"}, {"measurement": "IC90 Kasumi-1", "setting": "[2]", "result": 0.023, "unit": "µg/mL"}, {"measurement": "IC50 H9", "setting": "[3]", "result": 0.01, "unit": "µg/mL"}, {"measurement": "IC90 H9", "setting": "[3]", "result": 0.04, "unit": "µg/mL"}, {"measurement": "IC50 K562/adr", "setting": "[4]", "result": 0.02, "unit": "µg/mL"}, {"measurement": "IC90 K562/adr", "setting": "[4]", "result": 0.21, "unit": "µg/mL"}, {"measurement": "IC50 Jurkat", "setting": "[5]", "result": 0.006, "unit": "µg/mL"}, {"measurement": "IC90 Jurkat", "setting": "[5]", "result": 6.24, "unit": "µg/mL"}, {"measurement": "IC50 NB4", "setting": "[6]", "result": 0.009, "unit": "µg/mL"}, {"measurement": "IC90 NB4", "setting": "[6]", "result": 0.022, "unit": "µg/mL"}, {"measurement": "IC50 A549", "setting": "A549 (human lung cancer)", "result": 0.03, "unit": "µg/mL"}, {"measurement": "IC90 A549", "setting": "A549 (human lung cancer)", "result": ">16", "unit": "µg/mL"}, {"measurement": "IC50 SK-OV-3", "setting": "[7]", "result": 0.031, "unit": "µg/mL"}, {"measurement": "IC90 SK-OV-3", "setting": "[7]", "result": ">16", "unit": "µg/mL"}, {"measurement": "IC50 Huh7", "setting": "[8]", "result": 0.008, "unit": "µg/mL"}, {"measurement": "IC90 Huh7", "setting": "[8]", "result": 0.096, "unit": "µg/mL"}, {"measurement": "IC50 Hela", "setting": "[9]", "result": 0.011, "unit": "µg/mL"}, {"measurement": "IC90 Hela", "setting": "[9]", "result": 10.25, "unit": "µg/mL"}, {"measurement": "IC50 PC-3", "setting": "PC-3 (prostate cancer)", "result": 0.03, "unit": "µg/mL"}, {"measurement": "IC90 PC-3", "setting": "PC-3 (prostate cancer)", "result": ">16", "unit": "µg/mL"}, {"measurement": "IC50 CaES-17", "setting": "[10]", "result": 0.039, "unit": "µg/mL"}, {"measurement": "IC90 CaES-17", "setting": "[10]", "result": 16, "unit": "µg/mL"}, {"measurement": "IC50 MG 63", "setting": "MG63 (osteosarcoma)", "result": 0.022, "unit": "µg/mL"}, {"measurement": "IC90 MG 63", "setting": "MG63 (osteosarcoma)", "result": 1.72, "unit": "µg/mL"}, {"measurement": "IC50 PANC-1", "setting": "[11]", "result": 0.042, "unit": "µg/mL"}, {"measurement": "IC90 PANC-1", "setting": "[11]", "result": ">16", "unit": "µg/mL"}, {"measurement": "IC50 RKO", "setting": "[12]", "result": 0.008, "unit": "µg/mL"}, {"measurement": "IC90 RKO", "setting": "[12]", "result": 0.02, "unit": "µg/mL"}, {"measurement": "IC50 Hep-2", "setting": "[13]", "result": 0.012, "unit": "µg/mL"}, {"measurement": "IC90 Hep-2", "setting": "[13]", "result": ">16", "unit": "µg/mL"}, {"measurement": "IC50 U87 MG", "setting": "[14]", "result": 0.009, "unit": "µg/mL"}, {"measurement": "IC90 U87 MG", "setting": "[14]", "result": 0.067, "unit": "µg/mL"}, {"measurement": "IC50 MGC 803", "setting": "[15]", "result": 0.025, "unit": "µg/mL"}, {"measurement": "IC90 MGC 803", "setting": "[15]", "result": 0.098, "unit": "µg/mL"}, {"measurement": "IC50 Becap37", "setting": "[16]", "result": 0.01, "unit": "µg/mL"}, {"measurement": "IC90 Becap37", "setting": "[16]", "result": 6.4, "unit": "µg/mL"}, {"measurement": "IC50 CNE", "setting": "[17]", "result": 0.029, "unit": "µg/mL"}, {"measurement": "IC90 CNE", "setting": "[17]", "result": ">16", "unit": "µg/mL"}]}]}
